Marks after values point to notes of the source that are not given here.
Columns and labels:
TR146 cells = experiment: In vitro permeation, buccal model; type: in vitro ADME, human
Procedure: The in vitro permeability of the bioactive compounds present in OFs (n = 9) was determined using a co-culture model composed of TR146 ([31]). The extract and the CS-loaded OFs were added to the apical side of the model as a stock solution. […] The Transepithelial Electrical Resistance (TEER) of the model was evaluated before, during, and at the end of the permeability assay using an EVOM Epithelial Volthometer equipped with a chopstick electrode (World Precision Instruments, Sarasota, FL, USA).
(§1) The identification and quantification of the phenolic compounds present in the extract and the OFs, as well as the compounds that permeated from the OFs through in vitro and ex vivo assays, were conducted using an LC-ESI-LTQ-Orbitrap-HRMS equipment with an Accela chromatograph (Thermo Scientific, Hemel Hempstead, UK), a photodiode array detector, a quaternary pump, and a temperature-controlled autosampler coupled to a high-resolution LTQ Orbitrap Velos mass spectrometer (Thermo Scientific, Hemel Hempstead, UK) with an ESI source in negative mode ([33], [34]). The system was controlled using the Xcalibur v3.0 software (ThermoFisher Scientific, Hemel Hempstead, UK). Elution was performed on an Acquity™ UPLC® BEH C18 Column (2.1 × 100 mm, i.d., 1.7 µm particle size, Waters Corporation, Wexford, Ireland) maintained at 30°C.
(§2) Gradient elution was performed with water (A) and acetonitrile (B), both with 0.1% formic acid, with a flow rate and injection volume of 450 µl/min and 5 µl, respectively. The solvent gradient (v/v) of B [t (min), %B] was set as follows: (0, 0), (2, 0), (4, 30), (8, 100), (10, 100), (11, 0), and (14, 0). The samples were analyzed in the full scan mode at a resolving power of 30,000 and m/z 600. Data-dependent MS/MS events were acquired at a resolution of 15,000. Most intense ions were detected via the FTMS mode-triggered data-dependent acquisition mode. Ions that were not sufficiently intense for a data-dependent scan were explored in MSn mode. Precursors were fragmented by collision-induced dissociation using a C-trap with a normalized collision energy (35 V) and an activation time of 10 ms. […] Compounds whose theoretical [M–H]^− values exceeded the MS¹ acquisition range (m/z 100–600) were annotated based on characteristic MSⁿ fragment ions detected within the scan window.

[1] = Ex vivo permeation, Franz cells; type: in vitro ADME, porcine
Procedure: Porcine buccal mucosa was used to evaluate the buccal permeation of the phenolic compounds in the extract and the CS-loaded OFs (n = 9). The porcine buccal mucosa was purchased in a local butcher shop, not requiring ethical approval. A Franz cell assembly (9 mm clear jacketed Franz cell with a flat ground joint, 5 ml receptor volume, and permeation area of 0.785 cm^2; PermeGear, Inc., USA) was used. This experiment followed the methodology described by Rodrigues et al. ([32]). In the Franz apparatus, the porcine buccal mucosa was positioned with the cheek side facing the donor chamber, which contained 500 µl (1,000 μg/ml) of the CS extract or the CS-loaded OFs (two square films (2 × 2 cm) with […] of thickness were dissolved in 4 ml of artificial saliva; donor concentration was normalized to ensure equivalence between the extract solution and the film formulation). The receptor chamber was filled with 5 ml PBS, maintained at 37°C, and stirred continuously at 150 rpm. The volume was maintained through the experiments.
as §1, §2
Quantitative analysis was performed by using a validated chromatographic method ([38]).

Compound	Quantification of permeated compounds (TR146 cells; CS extract)	Quantification of permeated compounds (TR146 cells; CS-loaded OFs)	Permeation (%) (TR146 cells; from CS extract, 15 min)	Permeation (%) (TR146 cells; from CS extract, 30 min)	Permeation (%) (TR146 cells; from CS extract, 45 min)	Permeation (%) (TR146 cells; from CS extract, 60 min)	Permeation (%) (TR146 cells; from CS extract, 90 min)	Permeation (%) (TR146 cells; from CS extract, 120 min)	Permeation (%) (TR146 cells; from CS extract, 180 min)	Permeation (%) (TR146 cells; from CS extract, 240 min)	Permeation (%) (TR146 cells; from CS-loaded OFs, 15 min)	Permeation (%) (TR146 cells; from CS-loaded OFs, 45 min)	Permeation (%) (TR146 cells; from CS-loaded OFs, 60 min)	Permeation (%) (TR146 cells; from CS-loaded OFs, 90 min)	Permeation (%) (TR146 cells; from CS-loaded OFs, 120 min)	Permeation (%) (TR146 cells; from CS-loaded OFs, 180 min)	Quantification of permeated compounds ([1]; CS extract)	Quantification of permeated compounds ([1]; CS-loaded OFs)	Permeation (%) ([1]; from CS extract, 15 min)	Permeation (%) ([1]; from CS extract, 30 min)	other results
COc1cc(CC(=O)O)ccc1O [Homovanillic acid]	0.58 ± 0.03^a mg/ml	0.41 ± 0.01^a mg/g film	93.51 ± 2.52^b %	92.34 ± 1.55^b %	92.13 ± 1.08^b %	93.10 ± 0.94^b %	94.47 ± 3.00^b %	90.93 ± 2.74^b %	91.20 ± 1.73^b %	87.20 ± 2.06^a %	106.01 ± 1.46^a %	105.41 ± 0.99^a %	103.62 ± 2.72^a %	105.25 ± 2.83^a %	109.09 ± 1.97^a %	106.07 ± 2.67^a %	2.03 ± 0.03^a mg/ml	1.67 ± 0.03^a mg/g film	99.88 ± 2.79^a %	100.53 ± 3.72^a %	Permeation (%) (TR146 cells; from CS extract, 240 min, listed as homovanillic acid): 87.20%; Permeation (%) (TR146 cells; from CS-loaded OFs, 30 min): 104.89 ± 1.08^a %; Permeation (%) (TR146 cells; from CS-loaded OFs, 240 min): 110.05 ± 3.61^a %; Permeation (%) (TR146 cells; from CS-loaded OFs, 240 min, listed as homovanillic acid): 110.05%
O=C(O)CCC(=O)O [Succinic acid]	1.60 ± 0.03^a mg/ml	0.82 ± 0.01^a mg/g film	20.51 ± 1.62^b %	14.86 ± 2.71^a %	16.09 ± 1.85^a %	14.96 ± 0.46^a %	19.54 ± 0.94^b %	20.71 ± 1.67^b %	21.62 ± 0.61^b %	23.76 ± 1.68^b %	44.20 ± 2.19^a %	56.70 ± 1.23^b %	57.45 ± 0.78^b %	79.12 ± 4.41^c %	88.23 ± 1.26^c %	103.25 ± 1.42^d %	1.26 ± 0.01^b mg/ml	0.38 ± 0.01^a mg/g film	60.67 ± 0.21^b %	70.72 ± 3.61^b %	Permeation (%) (TR146 cells; from CS-loaded OFs, 30 min): 64.44 ± 1.03^c %; Permeation (%) (TR146 cells; from CS-loaded OFs, 240 min): 100.86 ± 1.75^d %; Permeation (%) (TR146 cells; from CS-loaded OFs, 240 min, listed as succinic acid): 100.86%; Permeation (%) ([1]; from CS-loaded OFs, 15 min): 14.00 ± 0.63^a %; Permeation (%) ([1]; from CS-loaded OFs, 30 min): 16.11 ± 0.72^a %
O=C(O)C[C@H](C(=O)O)[C@@H](O)C(=O)O [Isocitric acid]	222.23 ± 6.57^a mg/ml	306.36 ± 13.65^b mg/g film	0.04 ± 0.01^a %	0.12 ± 0.03^a %	0.15 ± 0.01^a %	0.15 ± 0.01^a %	0.24 ± 0.03^a %	0.33 ± 0.02^a^,^b %	0.54 ± 0.04^a^,^b %	0.70 ± 0.01^b %	0.15 ± 0.001^a %	0.50 ± 0.06^a %	0.62 ± 0.02^a %	1.04 ± 0.01^b %	1.40 ± 0.04^b %	2.77 ± 0.01^b %	2.20 ± 0.05^a mg/ml	2.21 ± 0.16^a mg/g film	15.13 ± 0.29^a %	13.91 ± 1.51^a %	Permeation (%) (TR146 cells; from CS-loaded OFs, 30 min): 0.29 ± 0.05^a %; Permeation (%) (TR146 cells; from CS-loaded OFs, 240 min): 3.38 ± 0.06^b %; Permeation (%) ([1]; from CS-loaded OFs, 15 min): 19.05 ± 1.12^a %; Permeation (%) ([1]; from CS-loaded OFs, 30 min): 19.02 ± 0.90^a %
O=C(O)c1ccc(O)c(O)c1 [Protocatechuic acid]	0.53 ± 0.03^a mg/ml	0.41 ± 0.02^a mg/g film	39.32 ± 0.96^b %	43.86 ± 1.62^b %	42.03 ± 0.79^b %	38.29 ± 0.86^b %	37.52 ± 0.97^b %	25.84 ± 1.03^a %	40.40 ± 0.82^c %	32.88 ± 0.87^b %	89.42 ± 3.08^b %	85.88 ± 2.01^b %	94.08 ± 3.56^b %	96.88 ± 1.43^b %	106.06 ± 0.78^b %	84.76 ± 2.51^b %	0.97 ± 0.03^b mg/ml	0.13 ± 0.01^a mg/g film	19.05 ± 1.63^a %	19.06 ± 0.61^a %	Permeation (%) (TR146 cells; from CS-loaded OFs, 240 min): 75.80 ± 0.91^a %; Permeation (%) (TR146 cells; from CS-loaded OFs, 240 min, listed as protocatechuic acid): 75.80%
O=C(O)c1cccc(O)c1 [3-Hydroxybenzoic acid]	1.52 ± 0.02^a mg/ml	0.36 ± 0.03^a mg/g film	13.57 ± 0.05^a %	13.06 ± 0.03^a %	14.09 ± 0.01^a %	17.29 ± 0.01^a %	16.17 ± 0.06^a %	29.12 ± 0.19^b %	16.86 ± 0.23^a %	24.23 ± 0.45^b %							1.18 ± 0.1^b mg/ml	0.09 ± 0.02^a mg/g film	5.91 ± 0.06^a %	4.76 ± 0.02^a %	Permeation (%) ([1]; from CS-loaded OFs, 15 min): 45.86 ± 0.03^b %; Permeation (%) ([1]; from CS-loaded OFs, 30 min): 105.28 ± 3.37^b %
